target: T1, Protein deacetylase HDAC6 (Homo sapiens, UniProt Q9UBN7); assay: Binding affinity to N-terminal His6-tagged HDAC6 zinc-finger ubiquitin binding domain (1109 to 1215 residues)(unknown origin) expressed in Escherichia coli BL21(DE3) by isothermal titration calorimetry; settings: not given
T1 sequence (Q9UBN7 whole entry): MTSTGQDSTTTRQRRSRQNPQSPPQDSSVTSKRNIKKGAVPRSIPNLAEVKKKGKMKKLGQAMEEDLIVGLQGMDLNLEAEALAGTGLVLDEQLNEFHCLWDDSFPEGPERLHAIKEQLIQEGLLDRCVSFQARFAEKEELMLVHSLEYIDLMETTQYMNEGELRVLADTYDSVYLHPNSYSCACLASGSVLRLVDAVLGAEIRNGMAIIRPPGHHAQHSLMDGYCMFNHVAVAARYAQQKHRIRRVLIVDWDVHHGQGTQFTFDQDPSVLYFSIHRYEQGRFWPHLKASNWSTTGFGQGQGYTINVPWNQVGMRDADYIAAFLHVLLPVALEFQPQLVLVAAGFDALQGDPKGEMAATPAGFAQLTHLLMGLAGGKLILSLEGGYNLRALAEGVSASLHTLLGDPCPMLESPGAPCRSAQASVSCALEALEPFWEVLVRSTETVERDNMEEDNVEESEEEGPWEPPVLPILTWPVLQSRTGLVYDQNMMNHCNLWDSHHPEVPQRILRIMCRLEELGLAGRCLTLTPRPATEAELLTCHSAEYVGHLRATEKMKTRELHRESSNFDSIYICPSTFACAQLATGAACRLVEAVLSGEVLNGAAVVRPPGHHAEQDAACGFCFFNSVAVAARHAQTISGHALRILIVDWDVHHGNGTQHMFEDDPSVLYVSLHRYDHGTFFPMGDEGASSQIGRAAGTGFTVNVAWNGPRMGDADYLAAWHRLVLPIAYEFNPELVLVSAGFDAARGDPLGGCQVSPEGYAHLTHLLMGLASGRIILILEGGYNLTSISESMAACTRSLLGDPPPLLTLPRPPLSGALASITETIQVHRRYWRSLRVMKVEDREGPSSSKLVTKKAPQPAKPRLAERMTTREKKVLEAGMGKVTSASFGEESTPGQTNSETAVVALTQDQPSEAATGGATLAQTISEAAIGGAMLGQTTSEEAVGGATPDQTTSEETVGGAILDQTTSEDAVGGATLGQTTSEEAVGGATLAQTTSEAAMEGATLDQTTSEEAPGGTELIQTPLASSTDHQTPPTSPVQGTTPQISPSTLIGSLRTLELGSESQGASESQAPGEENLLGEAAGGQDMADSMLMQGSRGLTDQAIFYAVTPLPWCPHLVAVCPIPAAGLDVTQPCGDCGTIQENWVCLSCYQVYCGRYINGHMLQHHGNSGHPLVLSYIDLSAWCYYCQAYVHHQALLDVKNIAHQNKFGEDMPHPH

SMILES	Kd
Cc1n[nH]c(=O)nc1Nc1ccc(C(C)C)cc1	Not Active
CCC(=O)Nc1nc(C)cs1	Not Active

same assay, conditions: read-out: Kd

Kd [µM]	SMILES
40	O=C(O)CCc1nc2cc(Cl)ccc2s1
210	O=C(O)CCn1nc(-c2cccnc2)ccc1=O

target: T1, Protein deacetylase HDAC6; assay: Binding affinity to N-terminal Avi-tagged/C-terminal His6-tagged HDAC6 zinc-finger ubiquitin binding domain (1109 to 1215 residues)(unknown origin) expressed in Escherichia coli BL21(DE3) after 30 secs by SPR assay; settings: not given

SMILES	Kd
Cc1n[nH]c(=O)nc1Nc1ccc(C(C)C)cc1	Not Active
CCC(=O)Nc1nc(C)cs1	Not Active

same assay, conditions: read-out: Kd

Kd [µM]	SMILES
60	O=C(O)CCc1nc2cc(Cl)ccc2s1
220	O=C(O)CCn1nc(-c2cccnc2)ccc1=O

target: T1, Protein deacetylase HDAC6; assay: Displacement of FITC-labeled RLRGG peptide from N-terminal His6-tagged HDAC6 zinc-finger ubiquitin binding domain (1109 to 1215 residues)(unknown origin) expressed in Escherichia coli BL21(DE3) after 10 mins by fluorescence polarization assay; settings: not given

SMILES	IC50
Cc1n[nH]c(=O)nc1Nc1ccc(C(C)C)cc1	Not Active
O=C(O)CCc1nc2ccccc2nc1OCc1cccs1	Not Active

Second part, the molecule after the results:

IC50	SMILES
Not Active	O=C(O)CCc1nc2ccccc2nc1OCc1ccccc1
Not Active	CCC(=O)Nc1nc(C)cs1

same assay, conditions: read-out: IC50

SMILES	IC50 [µM]
O=C(O)CCc1nc2ccccc2nc1OCCOc1ccccn1	110
Cn1c(=O)c(CCC(=O)O)nc2ccccc21	70
Cn1ccnc1COc1nc2ccccc2nc1CCC(=O)O	140
O=C(O)CCc1nc2ccccc2nc1OCc1ccccn1	270

More lines, now with the values ahead:

IC50 [µM]	SMILES
55	O=C(O)CCc1nc2cc(Cl)ccc2s1
180	Cc1cccc(OCCOc2nc3ccccc3nc2CCC(=O)O)c1
350	O=C(O)CCn1nc(-c2cccnc2)ccc1=O
60	O=C(O)CCc1nc2ccccc2nc1Sc1ccccc1

Source: ChEMBL document CHEMBL4017545, “Small Molecule Antagonists of the Interaction between the Histone Deacetylase 6 Zinc-Finger Domain and Ubiquitin” (J Med Chem, 2017)
